Measured values as given in patent publication US20160000071A1, “PHOTODEGRADABLE, BIOCOMPATIBLE AND EFFICIENT NANO-ENCAPSULATED FORMULATION” (priority 2014, published 2016).
Marks after values point to notes of the source that are not given here.

Columns and labels:
[1] = system: newly ecdysed fifth instar larvae of G. pyloalis; assay: Topical bioassay; assay type: in vivo, Glyphodes pyloalis Walker; settings: Glyphodes pyloalis
Procedure: (§1) The insects used in the present application is Glyphodes pyloalis Walker (Lepidoptera: Pyralidae) which was collected from infested mulberry orchards in the vicinity of Rasht, Iran. Mass rearing of insects was carried out in the laboratory under controlled conditions at 25±1° C., 70±5% RH and 16:8 L:D. Newly-ecdysed fifth instar larvae of G. pyloalis were used for the bioassay experiments. The Glyphodes pyloalis Walker hereinafter is referred to as G. pyloalis.
To determine the efficacy of the encapsulated nano-IMI prepared using ethanol, a topical bioassay was performed. In the preliminary tests, 5 concentrations of bulk and nano-IMI were tested. […] Fifty larvae per concentration were used for all experiments and each experiment was replicated 4 times; 1 μl of the desired concentration was topically applied to the metathoracic tergum. The controls received 1 μl of ethanol in the same way. The treated larvae were allowed to eat fresh leaves. After 24, 48, 72 and 96 h, the numbers of dead larvae were recorded.

[2] = system: newly-ecdysed fifth instar larvae of G. pyloalis; assay: Leaf dip bioassay; assay type: in vivo, Glyphodes pyloalis Walker; settings: for mortality at 50 ppm / mortality at 80 ppm / mortality at 126 ppm / mortality at 200 ppm / mortality at 316 ppm / mortality at 500 ppm: Glyphodes pyloalis, foliar
Procedure: as §1
The toxicity of the encapsulated imidacloprid diluted in water for the newly-ecdysed fifth instar larvae of G. pyloalis was evaluated using leaf dip bioassay. The technical imidacloprid was dissolved in acetone and diluted to generate 6 serial dilutions with distilled water. Mulberry leaf discs with diameters of 3.5 cm were prepared, so that each petiole was placed in a vial containing water for providing moisture to the leaf discs for several days. These discs were then immersed in the dilutions for 45 seconds. Mortality was assessed after the treated larvae were maintained at 25±1° C., 70±10 R.H. for 24, 48, 72, 96 and 120 hours.

[3] = Photocatalytic degradation of indoxacarb under UV light; assay type: physicochemical
[4] = Photo degradation of indoxacarb in the batch reactor under natural light

O=[N+]([O-])NC1=NCCN1Cc1ccc(Cl)nc1 [Imidacloprid]
mortality at 22 ppm ([1]; 24 h after treatment): 18.1% | mortality at 22 ppm ([1]; 48 h after treatment): 20% | mortality at 22 ppm ([1]; 72 h after treatment): 22% | mortality at 22 ppm ([1]; 96 h after treatment): 24% | mortality at 32 ppm ([1]; 24 h after treatment): 33% | mortality at 32 ppm ([1]; 48 h after treatment): 35% | mortality at 32 ppm ([1]; 72 h after treatment): 36.5% | mortality at 32 ppm ([1]; 96 h after treatment): 38.2% | mortality at 47.5 ppm ([1]; 24 h after treatment): 50% | mortality at 47.5 ppm ([1]; 48 h after treatment): 52.1% | mortality at 47.5 ppm ([1]; 72 h after treatment): 54% | mortality at 47.5 ppm ([1]; 96 h after treatment): 56% | mortality at 60 ppm ([1]; 24 h after treatment): 76% | mortality at 60 ppm ([1]; 48 h after treatment): 78% | mortality at 60 ppm ([1]; 72 h after treatment): 80.4% | mortality at 60 ppm ([1]; 96 h after treatment): 82% | mortality at 50 ppm ([2]; 24 h after treatment): 2.5 ± 2% | mortality at 50 ppm ([2]; 48 h after treatment): 15.6% | mortality at 50 ppm ([2]; 72 h after treatment): 27% | mortality at 50 ppm ([2]; 96 h after treatment): 42.5% | mortality at 50 ppm ([2]; 120 h after treatment): 46.2 ± 2.39% | mortality at 80 ppm ([2]; 24 h after treatment): 8.82% | mortality at 80 ppm ([2]; 48 h after treatment): 23.8% | mortality at 80 ppm ([2]; 72 h after treatment): 39.6 ± 3.33% | mortality at 80 ppm ([2]; 96 h after treatment): 57.8 ± 3.17% | mortality at 80 ppm ([2]; 120 h after treatment): 58.8 ± 3.75% | mortality at 126 ppm ([2]; 24 h after treatment): 21.9 ± 3.07% | mortality at 126 ppm ([2]; 48 h after treatment): 43.8 ± 2.39% | mortality at 126 ppm ([2]; 72 h after treatment): 58.6 ± 3.41% | mortality at 126 ppm ([2]; 96 h after treatment): 76.2 ± 3.17% | mortality at 126 ppm ([2]; 120 h after treatment): 78.8 ± 3.75% | mortality at 200 ppm ([2]; 24 h after treatment): 34.2 ± 2.09% | mortality at 200 ppm ([2]; 48 h after treatment): 55% | mortality at 200 ppm ([2]; 72 h after treatment): 71.7 ± 2.04% | mortality at 200 ppm ([2]; 96 h after treatment): 78.8 ± 2.39% | mortality at 200 ppm ([2]; 120 h after treatment): 80% | mortality at 316 ppm ([2]; 24 h after treatment): 39.2 ± 4.13% | mortality at 316 ppm ([2]; 48 h after treatment): 60% | mortality at 316 ppm ([2]; 72 h after treatment): 75% | mortality at 316 ppm ([2]; 96 h after treatment): 84.2 ± 3.37% | mortality at 316 ppm ([2]; 120 h after treatment): 86.2 ± 2.39% | mortality at 500 ppm ([2]; 24 h after treatment): 57.5 ± 2.04% | mortality at 500 ppm ([2]; 48 h after treatment): 77.6 ± 4% | mortality at 500 ppm ([2]; 72 h after treatment): 86.1 ± 1.63% | mortality at 500 ppm ([2]; 96 h after treatment): 100% | mortality at 500 ppm ([2]; 120 h after treatment): 100%

COC(=O)N(C(=O)N1CO[C@@]2(C(=O)OC)Cc3cc(Cl)ccc3C2=N1)c1ccc(OC(F)(F)F)cc1 [Indoxacarb, lndoxacarb]
% degradation of indoxacarb ([3]; 10 ppm, 1 h): 2.3% | % degradation of indoxacarb ([3]; 10 ppm, 3 h): 7.44% | % degradation of indoxacarb ([3]; 10 ppm, 6 h): 10.26% | % degradation of indoxacarb ([3]; 10 ppm, 18 h): 13.07% | % degradation of indoxacarb ([3]; 20 ppm, 1 h): 6.24% | % degradation of indoxacarb ([3]; 20 ppm, 3 h): 12.49% | % degradation of indoxacarb ([3]; 20 ppm, 6 h): 18.9% | % degradation of indoxacarb ([3]; 20 ppm, 18 h): 22.03% | % degradation of indoxacarb ([3]; 30 ppm, 1 h): 9.32% | % degradation of indoxacarb ([3]; 30 ppm, 3 h): 13.07% | % degradation of indoxacarb ([3]; 30 ppm, 6 h): 23.34% | % degradation of indoxacarb ([3]; 30 ppm, 18 h): 25.21% | % degradation of indoxacarb ([3]; 40 ppm, 1 h): 11.47% | % degradation of indoxacarb ([3]; 40 ppm, 3 h): 15.04% | % degradation of indoxacarb ([3]; 40 ppm, 6 h): 24.26% | % degradation of indoxacarb ([3]; 40 ppm, 18 h): 25.39% | % degradation of indoxacarb ([3]; 50 ppm, 1 h): 9.23% | % degradation of indoxacarb ([3]; 50 ppm, 3 h): 13.34% | % degradation of indoxacarb ([3]; 50 ppm, 6 h): 21.02% | % degradation of indoxacarb ([3]; 50 ppm, 18 h): 21.02% | maximum amount of indoxacarb removed / degraded ([3]; after approximately 18 h, over all concentrations (10-50 ppm)): about 25% | % mortality ([2]; 0.25 ppm, 24 h after treatment): 21 ± 2.91^g % | % mortality ([2]; 0.25 ppm, 72 h after treatment): 56.4 ± 8.84^bcdef % | % mortality ([2]; 0.25 ppm, 96 h after treatment): 61 ± 8.73^bcdef % | % mortality ([2]; 0.25 ppm, 120 h after treatment): 62 ± 7.62^bcdef % | % mortality ([2]; 0.45 ppm, 24 h after treatment): 34 ± 10.29^efg % | % mortality ([2]; 0.45 ppm, 48 h after treatment): 47.9 ± 10^cdefg % | % mortality ([2]; 0.45 ppm, 72 h after treatment): 59 ± 19.97^bcdef % | % mortality ([2]; 0.45 ppm, 96 h after treatment): 63 ± 12.32^bcdef % | % mortality ([2]; 0.45 ppm, 120 h after treatment): 64 ± 12.67^bcdef % | % mortality ([2]; 0.82 ppm, 24 h after treatment): 34.32 ± 7.45^efg % | % mortality ([2]; 0.82 ppm, 48 h after treatment): 51.5 ± 9.25^cdefg % | % mortality ([2]; 0.82 ppm, 72 h after treatment): 63.58 ± 7.84^bcdef % | % mortality ([2]; 0.82 ppm, 96 h after treatment): 76 ± 2.73^abcd % | % mortality ([2]; 0.82 ppm, 120 h after treatment): 77 ± 2.23^abcd % | % mortality ([2]; 1.5 ppm, 24 h after treatment): 44.16 ± 8.22^defg % | % mortality ([2]; 1.5 ppm, 48 h after treatment): 62 ± 2.23^bcdef % | % mortality ([2]; 1.5 ppm, 72 h after treatment): 74.4 ± 2.58^abcd % | % mortality ([2]; 1.5 ppm, 96 h after treatment): 83 ± 2.23^abc % | % mortality ([2]; 1.5 ppm, 120 h after treatment): 83.6 ± 2.07^abc % | % mortality ([2]; 2.8 ppm, 24 h after treatment): 51.32 ± 8.9^cdefg % | % mortality ([2]; 2.8 ppm, 48 h after treatment): 68.82 ± 5.05^abcde % | % mortality ([2]; 2.8 ppm, 72 h after treatment): 76.66 ± 4.27^abcd % | % mortality ([2]; 2.8 ppm, 96 h after treatment): 88.32 ± 6.55^ab % | % mortality ([2]; 2.8 ppm, 120 h after treatment): 88.4 ± 6.57^ab % | % mortality ([2]; 4 ppm, 24 h after treatment): 55 ± 3.87^bcdefg % | % mortality ([2]; 4 ppm, 48 h after treatment): 71.98 ± 2.92^abcd % | % mortality ([2]; 4 ppm, 72 h after treatment): 88.32 ± 7.57^ab % | % mortality ([2]; 4 ppm, 96 h after treatment): 100% | % mortality ([2]; 4 ppm, 120 h after treatment): 100 ± 0^a % | % photo degradation of indoxacarb ([4]; 10 ppm, 2 d): 16.33% | % photo degradation of indoxacarb ([4]; 10 ppm, 4 d): 19.02% | % photo degradation of indoxacarb ([4]; 10 ppm, 6 d): 21.21% | % photo degradation of indoxacarb ([4]; 10 ppm, 8 d): 23.4% | % photo degradation of indoxacarb ([4]; 10 ppm, 10 d): 30.47% | % photo degradation of indoxacarb ([4]; 20 ppm, 2 d): 22.26% | % photo degradation of indoxacarb ([4]; 20 ppm, 4 d): 23.47% | % photo degradation of indoxacarb ([4]; 20 ppm, 6 d): 25.17% | % photo degradation of indoxacarb ([4]; 20 ppm, 8 d): 29.28% | % photo degradation of indoxacarb ([4]; 20 ppm, 10 d): 33.4% | % photo degradation of indoxacarb ([4]; 30 ppm, 2 d): 26.23% | % photo degradation of indoxacarb ([4]; 30 ppm, 4 d): 29.2% | % photo degradation of indoxacarb ([4]; 30 ppm, 6 d): 31.18% | % photo degradation of indoxacarb ([4]; 30 ppm, 8 d): 33.16% | % photo degradation of indoxacarb ([4]; 30 ppm, 10 d): 36.13% | % photo degradation of indoxacarb ([4]; 40 ppm, 2 d): 22.26% | % photo degradation of indoxacarb ([4]; 40 ppm, 4 d): 29.28% | % photo degradation of indoxacarb ([4]; 40 ppm, 6 d): 31.34% | % photo degradation of indoxacarb ([4]; 40 ppm, 8 d): 36.3% | % photo degradation of indoxacarb ([4]; 40 ppm, 10 d): 39.21% | % photo degradation of indoxacarb ([4]; 50 ppm, 2 d): 21.23% | % photo degradation of indoxacarb ([4]; 50 ppm, 4 d): 26.35% | % photo degradation of indoxacarb ([4]; 50 ppm, 6 d): 30.18% | % photo degradation of indoxacarb ([4]; 50 ppm, 8 d): 32.23% | % photo degradation of indoxacarb ([4]; 50 ppm, 10 d): 37.38%
